# Assay results reported in US6391303B1, “Methods and compositions for inducing oral tolerance in mammals” (Emisphere Technologies, Inc., priority 1996, dated 2002).
# B1: MBP: Myelin Basic Protein, encephalitogenic antigen fed orally alone as comparison in the EAE model (protein, UniProt P02686 1-304, looked up)
# Myelin basic protein: MGNHAGKRELNAEKASTNSETNRGESEKKRNLGELSRTTSEDNEVFGEADANQNNGTSSQDTAVTDSKRTADPKNAWQDAHPADPGSRPHLIRLFSRDAPGREDNTFKDRPSESDELQTIQEDSAATSESLDVMASQKRPSQRHGSKYLATASTMDHARHGFLPRHRDTGILDSIGRFFGGDRGAPKRGSGKDSHHPARTAHYGSLPQKSHGRTQDENPVVHFFKNIVTPRTPPPSQGKGRGLSLSRFSWGAEGQRPGFGYGGRASDYKSAHKGFKGVDAQGTLSKIFKLGGRDSRSGSPMARR
# What was measured:
# [1] = test system: anti-SRBC serum IgM antibodies; assay: Direct hemagglutination assay for anti-SRBC serum IgM in mice fed SRBC with delivery agent; assay type: in vivo, BALB/c mice
# Description: (§1) Five female BALB/c mice were fed a single dose suspension of 2.5×10^9 sheep red blood cells (SRBC)+E94 (600 mg/Kg) in Phosphate Buffered Saline (PBS), 0.1 M phosphate and 0.15 M sodium chloride, pH 7.2. Seven days after completion of oral dosing, mice were primed by footpad injection of 1×10^7 SRBC. They were bled on day 14. On day 21 the mice were tested in a Delayed Type Hypersensitivity (DTH) test through challenge by injection in the footpad not previously used in priming with 1×10^8 SRBC. Footpad thickness was measured before and 24 hours after challenge using a Vernier caliper. On day 28 they were bled again. Sera were placed into Eppendorf tubes and assayed for anti-SRBC IgM (days 14 and 28) and anti-SRBC IgG (day 28) by the direct and indirect hemagglutination assays, respectively. (See assay description below.) Prior to assaying, the samples were heat inactivated at 56/C. for 60 minutes. Assay data for Example 1 are found in FIG. 2. […]
# a) Dilute 10μ of sera with 190μ of PBS, pH 7.2 (1/20) b) On a rigid, U-bottom microtiter plate, mark wells across the rows for dilutions of samples 40; 80; 160; . . . […]
# [2] = test system: anti-SRBC serum IgG antibodies; assay: Indirect hemagglutination assay for anti-SRBC serum IgG in mice fed SRBC with delivery agent; assay type: in vivo, BALB/c mice
# Description: as §1, with “Sera were placed into Eppendorf tubes and assayed for anti-SRBC IgM (days 14 and 28) and anti-SRBC IgG (day 28) by the direct and indirect hemagglutination assays, respectively.” left out
# a) In a 15 ml tube, add 11μ of goat anti-mouse IgG (Fcy specific) (2.3 mg/ml) to 5.05 ml PBS (1/460 dilution; approximate amount needed per plate) In a second tube, add 4μ of goat anti-rabbit IgG (Fc specific) to 1.8 ml of PBS approximate amount needed (per plate) […]
# [3] = test system: anti-ovalbumin IgG antibodies; assay: ELISA for serum anti-ovalbumin IgG in mice fed ovalbumin with delivery agent and challenged with ovalbumin in CFA; assay type: in vivo, BALB/c mice; details: for serum anti-ovalbumin IgG titer at week 4: single oral dose 25 mg ovalbumin with or without 600 mg/kg delivery agent, SC challenge with ovalbumin/CFA week 1, versus unfed; for serum anti-ovalbumin IgG titer at week 12: two oral doses 1 mg ovalbumin (weeks 0 and 4) with or without 600 mg/kg delivery agent, IM challenge with ovalbumin/CFA week 9
# Description: A stock solution was prepared by dissolving Ovalbumin, 10 mg/ml, in 10 mM phosphate buffer (pH 7.4). This solution was diluted with buffer to provide 1.0 mg in a volume of 0.2 ml. Ten BALB/c female mice were administered two oral doses of 1 mg ovalbumin per mouse with 600 mg/kg of E94 delivery agent at weeks 0 and 4.
# Systemic challenge was achieved by intramuscular (IM) injection of 2 mg/ml ovalbumin with 50% Complete Freund's Adjuvant (CFA) at week 9. Serum samples were collected at week 12 and assayed for anti-ovalbumin total IgG isotypes as described in Example 4 utilizing ovalbumin antigen instead of HA antigen. Assay data for Example 5 are found in FIG. 5.
# A stock solution of ovalbumin was prepared by dissolving Ovalbumin, 125 mg/ml, in 10 mM phosphate buffer (pH 7.4). This solution was used to provide 25 mg in a volume of 0.2 ml. Five BALB/c mice were administered a single oral dose of 25 mg ovalbumin per mouse with 600 mg/kg of E94 delivery agent.
# Challenge was achieved by subcutaneous (SC) injection of 0.1 mg ovalbumin with 50% Complete Freund's Adjuvant (CFA) at week 1. Serum samples were collected at week 4 and assayed for anti-ovalbumin total IgG isotypes as described in Example 5. Assay data for Example 6 are found in FIG. 6.
# [4] = test system: Experimental Autoimmune Encephalomyelitis (EAE); details: for mean day of onset of paralysis: single oral dose 1.0 mg MBP alone or with delivery agent, day after challenge; for clinical disease (Mean Clinical Score) of EAE: single oral dose 1.0 mg MBP with delivery agent, footpad challenge 0.05 mg MBP/CFA, scale 0 to 5
# Description: Two days after the (last) oral dose, all groups were challenged in the footpad with 0.05 mg of MBP emulsified with Complete Freund's Adjuvant containing Mycobacterium tuberculosis H37Ra, 4 mg/ml. Clinical signs of disease were observed starting on Day 11 after the challenge and rated on a scale of 0 (no disease) to 5 (death).
# [5] = test system: anti-influenza antibodies (anti-HA); assay: Hemagglutination inhibition assay of pooled sera of primed mice fed influenza antigen with delivery agent; details: primed s.c. 5 μg vaccine day 0, oral 60 μg influenza antigen + 750 mg/kg delivery agent day 21
# Description: Sera were collected every two weeks, pooled, and assayed for hemagglutination inhibition.
# Hemagglutination Inhibition Assay for Anti-HA Antibodies:
# If duplicates differ by one dilution, take the average. If they differ by more than one dilution, repeat the assay.
# 14) This titer provides the dilution of virus suspension which contains one HA unit per 50 μl. Divide this titer by 8 to get the dilution which will contain 4 HA units per 0.025 μl for the actual Hemagglutination Inhibition (HI) assay.
# RDE* treat all test sera, reference sera and negative control sera on the day before the HI assay will be done.
# Use flexible plates. Mark columns for duplicate dilution series of each test and control serum sample (normal naive serum and positive reference anti-serum). The plate should have 11 columns per row for dilutions plus column 12 for RBC alone.
# To all wells, except column 1, add 25 μl of PBS.
# To column 1 wells, add 50 μl of the appropriate RDE-treatment serum (test, positive, or negative control) sample.
# Serially 2× dilute 25 μl of the sera across to column 11, mixing 7× per dilution.
# Add 25 μl of diluted virus (containing 4 HA units per 25 μl) to all serum dilution wells, columns 1-11. Add 25 μl of PBS to column 21.
# Cover plate, mix briefly on shaker, and incubate at r.t. for 30 minutes.7. […]
# Read patterns immediately. […]
# DTH response to SRBC = assay: Delayed Type Hypersensitivity (DTH) footpad thickness test in mice fed SRBC with delivery agent; assay type: in vivo, BALB/c mice; details: single oral dose 2.5×10^9 SRBC + delivery agent 600 mg/Kg; versus unfed control and SRBC alone
# Description: Five female BALB/c mice were fed a single dose suspension of 2.5×10^9 sheep red blood cells (SRBC)+E94 (600 mg/Kg) in Phosphate Buffered Saline (PBS), 0.1 M phosphate and 0.15 M sodium chloride, pH 7.2. Seven days after completion of oral dosing, mice were primed by footpad injection of 1×10^7 SRBC. They were bled on day 14. On day 21 the mice were tested in a Delayed Type Hypersensitivity (DTH) test through challenge by injection in the footpad not previously used in priming with 1×10^8 SRBC. Footpad thickness was measured before and 24 hours after challenge using a Vernier caliper. On day 28 they were bled again. Sera were placed into Eppendorf tubes and assayed for anti-SRBC IgM (days 14 and 28) and anti-SRBC IgG (day 28) by the direct and indirect hemagglutination assays, respectively. (See assay description below.) Prior to assaying, the samples were heat inactivated at 56/C. for 60 minutes. Assay data for Example 1 are found in FIG. 2.
# Five female BALB/c mice were fed a single dose suspension of 2.5×10^9 sheep red blood cells (SRBC)+[…] (600 mg/Kg) as described in Example 7. Seven days after completion of oral dosing, mice were primed by footpad injection of 1×10^7 SRBC. On day 14. footpad thickness was measured according to the Delayed Type Hypersensitivity (DTH) method outlined in Example 1. The DTH data for Example 8 are found in FIG. 8. […]
# [6] = test system: DTH response to ovalbumin; assay: DTH footpad thickness assay in mice fed ovalbumin with delivery agent; assay type: in vivo, BALB/c mice; details: single oral dose 1.0 mg ovalbumin with or without 600 mg/kg delivery agent; SC challenge ovalbumin/CFA week 3; versus unfed
# Description: A stock solution of ovalbumin was prepared by dissolving Ovalbumin, 10 mg/ml in 10 mM phosphate buffer (pH 7.4). This solution was diluted 2-fold and used to provide 1.0 mg in a volume of 0.2 ml. Five BALB/c mice were administered a single oral dose of 1.0 mg ovalbumin per mouse with 600 mg/kg of E702 delivery agent.
# Challenge was achieved by subcutaneous (SC) injection of 0.1 mg ovalbumin with 50% Complete Freund's Adjuvant (CFA) at week 3. DTH assay was performed as described in Examples 1 and 8. Assay data for Example 10 are found in FIG. 9.
# [7] = single oral dose SRBC + delivery agent 600 mg/Kg, versus unfed control (Comparative Example D)
Molecule,serum anti-ovalbumin IgG titer at week 4 [3],serum anti-ovalbumin IgG titer at week 12 [3],mean day of onset of paralysis [4],clinical disease (Mean Clinical Score) of EAE [4],"DTH response (footpad thickness), Day 14 (DTH response to SRBC)","DTH response (footpad thickness), week 5 [6]",further results
"O=C(N[C@@H](Cc1ccccc1)C(=O)O)c1ccccc1O [E94, N-salicyloyl phenylalanine]",significantly suppressed serum anti-Ova IgG titers,significantly suppressed compared to both unfed and antigen-alone fed,15 days,suppression of clinical disease,–,–,"anti-SRBC IgM titer, Day 14 ([1]; single oral dose 2.5×10^9 SRBC + delivery agent 600 mg/Kg, primed day 7, versus unfed control and SRBC alone): suppressed IgM on Day 14 relative to unfed control (Comparative Example D) significantly more than without delivery agent; anti-SRBC IgM titer, Day 28 [1, 7]: still lower than that for the Comparative Example D control (90% significance); anti-SRBC IgG titer, Day 28 [2, 7]: lower than the Comparative Example D control (90% significance); suppression of anti-influenza antibody production (HI titer) relative to control fed only influenza antigen [5]: more than 2 fold"
"O=C(O)CCCc1ccc(NS(=O)(=O)c2ccccc2)cc1 [E198, 4-[4-(N-benzenesulfonyl)]aminophenyl butyric acid]",–,–,–,–,suppressed the DTH response on Day 14 relative to unfed control (Comparative Example L) significantly more than without delivery agent,–,–
"COc1ccccc1C(=O)Nc1ccc(CCC(=O)O)cc1 [E594, 3-[4-(N-2 methoxybenzoyl)]aminophenyl propionic acid]",–,–,–,–,suppressed the DTH response on Day 14 relative to unfed control (Comparative Example L) significantly more than without delivery agent,–,"anti-SRBC IgG titer, Day 14 ([2]; single oral dose 2.5×10^9 SRBC + delivery agent 600 mg/Kg, versus unfed control and SRBC alone): suppressed IgG on Day 14 relative to unfed control (Comparative Example K) significantly more than without delivery agent"
"COc1cccc(C(=O)Nc2ccc(CCC(=O)O)cc2)c1OC [E702, 3-[4-(N-2,3-dimethoxybenzoyl)]aminophenyl propionic acid]",–,–,15 days,suppression of clinical disease,–,significantly suppressed response in the DTH,–
"Ovalbumin: Ovalbumin antigen fed orally alone, without delivery agent, as comparative example",suppression was not statistically significant,the same as in mice given the intramuscular dose alone,–,–,–,not suppressed,–
B1,–,–,13 days,–,–,–,–
